Data taken from ChEMBL document CHEMBL5346920, “Development of the "hidden" multi-target-directed ligands by AChE/BuChE for the treatment of Alzheimer's disease” (Eur J Med Chem, 2023).
Activity calls are given as the source filed them. The rule behind the calls is not given here.

Key:
Danio rerio [1] = organism: Danio rerio; assay: Antialzheimer activity against AlCl3-induced Alzheimer's disease zebra fish model assessed as total distance moved at 0.0195 ug/ml treated for 24 hrs and measured after 24 hrs under alternating light dark stimuli conditions (reference value: 543 cm); assay type: functional; details: dose 0.0195 µg/ml; time 48 hrs
[2] = Metal chelating activity assessed as compound-Zn2+ complex formation at 37.5 uM incubated for 30 mins in presence of ZnCl2 by UV-Vis spectrometry
[3] = Metal chelating activity assessed as compound-Al3+ complex formation by measuring maximum absorption wavelength shift from 316 to 434 nm at 37.5 uM incubated for 30 mins in presence of AlCl3 by UV-Vis spectrometry
[4] = Metal chelating activity assessed as compound-Cu2+ complex formation by measuring maximum absorption wavelength shift from 316 to 446 nm at 37.5 uM incubated for 30 mins in presence of CuCl2 by UV-Vis spectrometry
[5] = Stability of the compound in artificial gastric juice assessed as parent compound remaining at 1 mg/ml measured after 8 hrs by UPLC-MS/MS analysis; assay type: ADME; details: read-out: Stability
[6] = target: Cholinesterase (Equus caballus) (UniProt P81908); assay: Reversible inhibition of equine serum BuChE assessed as enzyme activity using butyrylthiocholine chloride as substrate measured after dilution to 0.1XIC50 for 240 mins by Ellman's method; assay type: cell-free; set-up: scale not given: the % may be the effect or the level left
Cholinesterase (Equus caballus), sequence (P81908 whole entry): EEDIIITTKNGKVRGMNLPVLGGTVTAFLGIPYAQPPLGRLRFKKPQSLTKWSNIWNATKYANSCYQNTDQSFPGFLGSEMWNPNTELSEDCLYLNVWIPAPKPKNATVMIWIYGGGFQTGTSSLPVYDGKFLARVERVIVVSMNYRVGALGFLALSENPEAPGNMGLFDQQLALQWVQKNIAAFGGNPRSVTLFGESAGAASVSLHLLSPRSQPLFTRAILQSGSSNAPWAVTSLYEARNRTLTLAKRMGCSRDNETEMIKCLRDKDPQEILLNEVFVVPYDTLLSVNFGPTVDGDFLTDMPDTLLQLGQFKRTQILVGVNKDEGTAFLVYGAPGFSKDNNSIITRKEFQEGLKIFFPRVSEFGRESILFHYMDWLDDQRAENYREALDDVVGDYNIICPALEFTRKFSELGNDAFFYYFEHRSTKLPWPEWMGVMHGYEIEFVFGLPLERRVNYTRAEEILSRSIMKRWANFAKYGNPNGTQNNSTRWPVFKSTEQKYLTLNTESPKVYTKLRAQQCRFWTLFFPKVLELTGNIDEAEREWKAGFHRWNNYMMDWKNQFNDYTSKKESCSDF

[7] = Stability of the compound in blank gastric juice assessed as parent compound remaining at 1 mg/ml measured after 8 hrs by UPLC-MS/MS analysis; assay type: ADME; details: read-out: Stability
Danio rerio [8] = organism: Danio rerio; assay: Antialzheimer activity against AlCl3-induced Alzheimer's disease zebra fish model assessed as distance velocity at 0.0049 ug/ml treated for 24 hrs and measured after 24 hrs under light environment (reference value: 7.7 cm/min); assay type: functional; details: dose 0.0049 µg/ml; time 48 hrs
Danio rerio [9] = organism: Danio rerio; assay: Neuroprotective activity against AlCl3-induced Alzheimer's disease zebra fish model assessed as distance velocity at 0.078 ug/ml treated for 24 hrs and measured after 24 hrs under light environment (reference value: 7.7 cm/min); assay type: functional; details: dose 0.078 µg/ml; time 48 hrs
Danio rerio [10] = organism: Danio rerio; assay: Antialzheimer activity against AlCl3-induced Alzheimer's disease zebra fish model assessed as total distance moved at 0.078 ug/ml treated for 24 hrs and measured after 24 hrs under dark environment (reference value: 312 cm); assay type: functional; details: dose 0.078 µg/ml; time 48 hrs
PC-12 [11] = assay: Neuroprotective activity against Amyloid beta(25 to 35)-induced cell injury in rat PC12 cells assessed as cell viability at 20 uM pretreated for 2 hrs followed by incubation with Abeta(25 to 35) for 24 hrs by CCK-8 assay (reference value: 41 to 58.6%); assay type: functional; details: time 26 hrs, read-out: Activity
[12] = Acute toxicity in zebra fish assessed as proportion of dead zebrafish at 5 to 10 ug/ml and measured every 24 hrs upto 120 hours post fertilization; set-up: species or system Danio rerio; details: in vivo, at 5 to 10 µg/mL, dose 5-10 µg/ml, read-out: Activity
Cholinesterase [13] = target: T1, Cholinesterase (Equus caballus, UniProt P81908); assay: Drug metabolism assessed as equine serum BuChE-mediated 3-(4-fluorophenyl)-1-(2-hydroxyphenyl)prop-2-en-1-one formation treated at 150 mmol/L with 0.25U BuChE and measured after 6 secs by HPLC analysis; assay type: ADME, cell-free; details: horse, 6 s, time 6 sec
T1 sequence (P81908 whole entry): as above

[14] = Stability of the compound in artificial intestinal juice assessed as parent compound remaining at 1 mg/ml measured after 8 hrs by UPLC-MS/MS analysis; assay type: ADME; details: read-out: Stability
Danio rerio [15] = organism: Danio rerio; assay: Antialzheimer activity against AlCl3-induced Alzheimer's disease zebra fish model assessed as total distance moved at 0.078 ug/ml treated for 24 hrs and measured after 24 hrs under alternating light dark stimuli conditions (reference value: 543 cm); assay type: functional; details: dose 0.078 µg/ml; time 48 hrs
[16] = Permeability of the compound at 100 ug/ml incubated for 18 hrs by PAMPA assay; assay type: ADME; details: dose 100 µg/ml, read-out: permeability
[17] = Stability of the compound in rat plasma assessed as parent compound remaining at 10 ug/ml measured after 3 hrs by UPLC-MS/MS analysis; assay type: ADME, cell-free; details: at 10 µg/mL, read-out: Stability
[18] = Acute toxicity in zebra fish assessed as maximum non-lethal dose; set-up: species or system Danio rerio; details: zebrafish
Acetylcholinesterase = Acetylcholinesterase (Electrophorus electricus, UniProt O42275); assay: Drug metabolism assessed as electric eel AChE-mediated 3-(4-fluorophenyl)-1-(2-hydroxyphenyl)prop-2-en-1-one formation treated at 150 mmol/L with 0.5U AChE and measured after 9 mins by HPLC analysis; assay type: ADME; details: 0.15 h
Acetylcholinesterase, sequence (O42275 whole entry): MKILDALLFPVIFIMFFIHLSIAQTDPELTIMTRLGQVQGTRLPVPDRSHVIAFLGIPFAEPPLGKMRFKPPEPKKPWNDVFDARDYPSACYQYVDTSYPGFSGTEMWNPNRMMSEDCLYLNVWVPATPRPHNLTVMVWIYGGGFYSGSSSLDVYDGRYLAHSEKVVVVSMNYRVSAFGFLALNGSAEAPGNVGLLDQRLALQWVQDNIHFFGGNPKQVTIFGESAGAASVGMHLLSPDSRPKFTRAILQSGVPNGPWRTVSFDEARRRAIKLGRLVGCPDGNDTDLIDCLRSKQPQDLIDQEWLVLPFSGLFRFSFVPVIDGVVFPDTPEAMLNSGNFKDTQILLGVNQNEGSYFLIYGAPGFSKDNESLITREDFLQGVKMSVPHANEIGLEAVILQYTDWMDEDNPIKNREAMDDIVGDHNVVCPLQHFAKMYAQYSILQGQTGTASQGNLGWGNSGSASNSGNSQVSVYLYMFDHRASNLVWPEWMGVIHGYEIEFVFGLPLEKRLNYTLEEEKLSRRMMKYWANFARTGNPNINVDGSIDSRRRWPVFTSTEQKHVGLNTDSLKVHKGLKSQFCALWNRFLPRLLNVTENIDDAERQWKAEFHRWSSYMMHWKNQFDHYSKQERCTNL

Cholinesterase [19] = target: T1, Cholinesterase; assay: Drug metabolism assessed as equine serum BuChE-mediated 3-(4-fluorophenyl)-1-(2-hydroxyphenyl)prop-2-en-1-one formation treated at 150 mmol/L with 0.25U BuChE and measured after 6 mins by HPLC analysis; assay type: ADME, cell-free; details: horse, 0.1 h
[20] = Acute toxicity in zebra fish assessed as ratio of pericardial edema to body weight at 0.15625 to 2.5 ug/ml and measured at 120 hpf by microscopic analysis; set-up: species or system Danio rerio; details: zebrafish; dose 0.15625-2.5 µg/ml
Cholinesterase [21] = target: T1, Cholinesterase; assay: Drug metabolism assessed as equine serum BuChE-mediated 3-(4-fluorophenyl)-1-(2-hydroxyphenyl)prop-2-en-1-one formation treated at 150 mmol/L with 0.05U BuChE and measured after 9 mins by HPLC analysis; assay type: ADME, cell-free; details: horse, 0.15 h
Danio rerio [22] = organism: Danio rerio; assay: Neuroprotective activity against AlCl3-induced Alzheimer's disease zebra fish model assessed as distance velocity at 0.0195 ug/ml treated for 24 hrs and measured after 24 hrs under alternating light dark stimuli conditions (reference value: 9 cm/min); assay type: functional; details: dose 0.0195 µg/ml; time 48 hrs
Danio rerio [23] = organism: Danio rerio; assay: Neuroprotective activity against AlCl3-induced Alzheimer's disease zebra fish model assessed as distance velocity at 0.0049 ug/ml treated for 24 hrs and measured after 24 hrs under dark environment (reference value: 10.4 cm/min); assay type: functional; details: dose 0.0049 µg/ml; time 48 hrs
[24] = target: Cholinesterase (Equus caballus) (UniProt P81908); assay: Reversible inhibition of equine serum BuChE assessed as enzyme activity using butyrylthiocholine chloride as substrate measured after dilution to 0.1XIC50 by Ellman's method; assay type: cell-free; set-up: scale not given: the % may be the effect or the level left
PC-12 [25] = assay: Neuroprotective activity against Amyloid beta(25 to 35)-induced cell injury in rat PC12 cells assessed as cell viability at 10 uM pretreated for 2 hrs followed by incubation with Abeta(25 to 35) for 24 hrs by CCK-8 assay (reference value: 41 to 58.6%); assay type: functional; details: time 26 hrs, read-out: Activity
Danio rerio [26] = organism: Danio rerio; assay: Neuroprotective activity against AlCl3-induced Alzheimer's disease zebra fish model assessed as distance velocity at 0.0195 ug/ml treated for 24 hrs and measured after 24 hrs under dark environment (reference value: 10.4 cm/min); assay type: functional; details: dose 0.0195 µg/ml; time 48 hrs
Homo sapiens = organism: Homo sapiens; assay: Selectivity index, ratio of IC50 for inhibition of human recombinant MAO-A expressed in baculovirus-infected BTI cells to IC50 for inhibition of human recombinant MAO-B expressed in baculovirus-infected BTI cells
[27] = target: Acetylcholinesterase (Electrophorus electricus) (UniProt O42275); assay: Reversible inhibition of electric eel AChE assessed as enzyme activity using acetylthiocholine iodide as substrate measured after dilution to 0.1XIC50 for 120 mins by Ellman's method; set-up: scale not given: the % may be the effect or the level left
Acetylcholinesterase (Electrophorus electricus), sequence (O42275 24-633 limits assumed): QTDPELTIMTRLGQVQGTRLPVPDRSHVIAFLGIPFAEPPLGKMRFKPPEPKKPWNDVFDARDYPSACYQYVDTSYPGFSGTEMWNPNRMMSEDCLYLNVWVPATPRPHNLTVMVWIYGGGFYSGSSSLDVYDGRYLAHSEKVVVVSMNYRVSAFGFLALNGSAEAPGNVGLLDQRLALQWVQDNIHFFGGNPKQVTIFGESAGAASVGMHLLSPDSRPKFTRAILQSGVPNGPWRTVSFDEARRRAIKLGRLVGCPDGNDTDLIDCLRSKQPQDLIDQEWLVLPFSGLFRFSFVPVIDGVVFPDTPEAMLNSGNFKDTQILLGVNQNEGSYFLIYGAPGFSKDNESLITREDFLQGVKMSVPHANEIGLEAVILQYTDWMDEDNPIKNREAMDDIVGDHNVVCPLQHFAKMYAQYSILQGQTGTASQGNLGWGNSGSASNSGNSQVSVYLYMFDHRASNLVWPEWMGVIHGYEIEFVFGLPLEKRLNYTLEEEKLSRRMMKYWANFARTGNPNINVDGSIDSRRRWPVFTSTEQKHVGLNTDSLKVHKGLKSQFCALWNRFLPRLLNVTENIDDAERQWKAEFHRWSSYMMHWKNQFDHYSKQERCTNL

SMILES: CCN(C)C(=O)Oc1ccccc1C(=O)/C=C/c1ccc(F)cc1
- Activity (Danio rerio [1]): 922 cm
- Activity [2]: inactive
- Activity [3]: inactive
- Activity [4]: inactive
- remaining at 8 h, 1 mg/ml [5]: 97.3%
- Activity [6]: 93.3%
- remaining at 8 h, 1 mg/ml [7]: 103%
- Activity (Danio rerio [8]): 12.4 cm/min
- Activity (Danio rerio [9]): 7.5 cm/min
- Activity (Danio rerio [10]): 537 cm
- viability at 20 µM (PC-12 [11]): 79.7%
- mortality [12]: 100%
- Drug metabolism (Cholinesterase [13]): 1.51 mmol/L
- remaining at 8 h, 1 mg/ml [14]: 104%
- Activity (Danio rerio [15]): 763 cm
- Papp at 18 h, 100 ug/ml [16]: 16.8 ×10⁻⁶ cm/s
- remaining at 3 h, 10 ug/ml [17]: 99.3%
- Activity [18]: 2.5 µg/mL
- Drug metabolism (Acetylcholinesterase): 24.87 mmol/L
- Drug metabolism (Cholinesterase [19]): 14.62 mmol/L
- Activity [20]: Non-Toxic
- Drug metabolism (Cholinesterase [21]): 14.17 mmol/L
- Activity (Danio rerio [22]): 15.3 cm/min
- Activity (Danio rerio [23]): 13 cm/min
- Activity [24]: 52.6%
- viability at 10 µM (PC-12 [25]): 75%
- Activity (Danio rerio [26]): 19.2 cm/min
- Ratio IC50 (Homo sapiens): 20.1
- Activity [27]: 88.7%
